Here are results for 25 compounds from patent US20120088759A1, “THIAZOLIDIN-4-ONE AND [1,3]-THIAZINAN-4-ONE COMPOUNDS AS OREXIN RECEPTOR ANTAGONISTS” (priority 2009, published 2012).

One experiment concerns the target T1, human orexin-1 receptor (Homo sapiens, UniProt O43613).
T1 construct: expressed in transfected cells; host or cells: CHO (Chinese hamster ovary) cells, kept under G418
T1 sequence (O43613 1-425): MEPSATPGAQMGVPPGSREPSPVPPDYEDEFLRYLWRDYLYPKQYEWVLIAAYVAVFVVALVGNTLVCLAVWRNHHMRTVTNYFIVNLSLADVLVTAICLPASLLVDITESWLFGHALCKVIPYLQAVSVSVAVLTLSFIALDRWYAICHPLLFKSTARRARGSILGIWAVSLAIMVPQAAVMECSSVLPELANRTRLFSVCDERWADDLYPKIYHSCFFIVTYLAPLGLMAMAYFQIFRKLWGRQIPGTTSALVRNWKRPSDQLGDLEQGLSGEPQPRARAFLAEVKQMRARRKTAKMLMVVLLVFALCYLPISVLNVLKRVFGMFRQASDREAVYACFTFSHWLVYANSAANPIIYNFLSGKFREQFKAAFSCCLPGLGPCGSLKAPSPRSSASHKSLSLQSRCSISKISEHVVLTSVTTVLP
The experiment is described as follows: FLIPR intracellular calcium assay, orexin receptor antagonistic activity (OX1). The experiment is classed as cell-based. The settings on record: CHO cells expressing human orexin-1 receptor; 3 nM orexin-A; normalized to on-plate reference; *n = geometric mean from n values. The protocol: (§1) The orexin receptor antagonistic activity of the compounds of formula (I) is determined in accordance with the following experimental method.
(§2) Chinese hamster ovary (CHO) cells expressing the human orexin-1 receptor and the human orexin-2 receptor, respectively, are grown in culture medium (Ham F-12 with L-Glutamine) containing 300 μg/ml G418, 100 U/ml penicillin, 100 μg/ml streptomycin and 10% heat inactivated fetal calf serum (FCS). The cells are seeded at 20′000 cells/well into 384-well black clear bottom sterile plates (Greiner). The seeded plates are incubated overnight at 37° C. in 5% CO2.
(§3) Human orexin-A as an agonist is prepared as 1 mM stock solution in MeOH:water (1:1), diluted in HBSS containing 0.1% bovine serum albumin (BSA), NaHCO3: 0.375 g/l and 20 mM HEPES for use in the assay at a final concentration of 3 nM.
(§4) Antagonists are prepared as 10 mM stock solution in DMSO, then diluted in 384-well plates using DMSO followed by a transfer of the dilutions into in HBSS containing 0.1% bovine serum albumin (BSA), NaHCO3: 0.375 g/l and 20 mM HEPES. On the day of the assay, 50 μl of staining buffer (HBSS containing 1% FCS, 20 mM HEPES, NaHCO3: 0.375 g/l, 5 mM probenecid (Sigma) and 3 μM of the fluorescent calcium indicator fluo-4 AM (1 mM stock solution in DMSO, containing 10% pluronic) is added to each well. The 384-well cell-plates are incubated for 50 min at 37° C. in 5% CO2 followed by equilibration at rt for 30-120 min before measurement.
(§5) Within the Fluorescent Imaging Plate Reader (FLIPR Tetra, Molecular Devices), antagonists are added to the plate in a volume of 10 μl/well, incubated for 10 min and finally 10 μl/well of agonist is added. Fluorescence is measured for each well at 1 second intervals, and the height of each fluorescence peak is compared to the height of the fluorescence peak induced by 3 nM orexin-A with vehicle in place of antagonist. For each antagonist, the IC50 value (the concentration of compound needed to inhibit 50% of the agonistic response) is determined and normalized using the obtained IC50 value of a on-plate reference compound. Optimized conditions were achieved by adjustment of pipetting speed and cell splitting regime. The calculated IC50 values of the compounds may fluctuate depending on the daily cellular assay performance. Fluctuations of this kind are known to those skilled in the art.
(A change in cytosolic calcium serves as a functional read-out for many receptors and channels.)

In the next experiment the target is T2, human orexin-2 receptor (Homo sapiens, UniProt O43614).
T2 construct: expressed in transfected cells; host or cells: CHO (Chinese hamster ovary) cells, kept under G418
T2 sequence (O43614 1-444): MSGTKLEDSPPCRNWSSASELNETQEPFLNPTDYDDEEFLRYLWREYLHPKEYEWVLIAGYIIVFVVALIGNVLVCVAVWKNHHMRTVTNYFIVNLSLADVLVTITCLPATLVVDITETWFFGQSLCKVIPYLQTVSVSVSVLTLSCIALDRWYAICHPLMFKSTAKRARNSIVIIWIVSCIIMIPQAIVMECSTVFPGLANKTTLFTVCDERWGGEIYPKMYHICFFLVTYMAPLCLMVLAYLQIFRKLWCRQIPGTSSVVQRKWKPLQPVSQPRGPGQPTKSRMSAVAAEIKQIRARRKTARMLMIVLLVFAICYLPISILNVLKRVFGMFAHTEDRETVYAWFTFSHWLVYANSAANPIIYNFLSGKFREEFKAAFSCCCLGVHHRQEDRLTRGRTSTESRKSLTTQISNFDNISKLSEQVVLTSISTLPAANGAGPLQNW
The experiment is described as follows: FLIPR intracellular calcium assay, orexin receptor antagonistic activity (OX2). The settings on record: CHO cells expressing human orexin-2 receptor; 3 nM orexin-A; normalized to on-plate reference; *n = geometric mean from n values. The format is cell-based. The protocol: as §1, §2, §3, §4, §5

Take `COc1cc(C)cc(OC)c1C1SCC(=O)N1Cc1ccc(OC(F)(F)F)cc1` (centres unmarked) [Example 34, 2-(2,6-Dimethoxy-4-methyl-phenyl)-3-(4-trifluoromethoxy-benzyl)-thiazolidin-4-one]: the IC50 (in general, the concentration needed to halve the response being measured) was 107 nM on human orexin-1 receptor and 28 nM at human orexin-2 receptor.
For `COc1cccc(OC)c1C1SCC(=O)N1Cc1ccc(Oc2cc(C)ccn2)cc1` (centres unmarked) [Example 284, 2-(2,6-Dimethoxy-phenyl)-3-[4-(4-methyl-pyridin-2-yloxy)-benzyl]-thiazolidin-4-one] the same measures were 344 nM and 7 nM.
The corresponding values for `COc1cccc(OC)c1C1SCC(=O)N1Cc1ccc(OC(C)C)cc1` (centres unmarked) [Example 5, 2-(2,6-Dimethoxy-phenyl)-3-(4-isopropoxy-benzyl)-thiazolidin-4-one] are 169 nM and 16 nM.
The corresponding values for `COc1cccc(OC)c1C1SC(C)C(=O)N1Cc1ccc2ccccc2c1` (centres unmarked) [Example 14, 2-(2,6-Dimethoxy-phenyl)-5-methyl-3-naphthalen-2-ylmethyl-thiazolidin-4-one] are 31 nM and 44 nM.
Regarding `CCOc1ccccc1C1SCCC(=O)N1Cc1c(OC)cccc1OC` (centres unmarked) [Example 43, 3-(2,6-Dimethoxy-benzyl)-2-(2-ethoxy-phenyl)-[1,3]thiazinan-4-one], the IC50 on human orexin-1 receptor was determined as 793 nM; at human orexin-2 receptor, 70 nM.
The corresponding values for `COc1cccc(OC)c1C1SC(C)C(=O)N1Cc1ccc(OC(F)(F)F)cc1` (centres unmarked) [Example 17, 2-(2,6-Dimethoxy-phenyl)-5-methyl-3-(4-trifluoromethoxy-benzyl)-thiazolidin-4-one] are 363 nM and 15 nM.
For `CCOc1ccc(CN2C(=O)CSC2c2c(OC)ccc3cccnc23)cc1` (centres unmarked) [Example 21, 3-(4-Ethoxy-benzyl)-2-(7-methoxy-quinolin-8-yl)-thiazolidin-4-one], the half-inhibitory concentration (IC50) on human orexin-1 receptor stood at 1450 nM; at human orexin-2 receptor, 60 nM.
As to `COc1cc(F)cc(OC)c1C1SCC(=O)N1Cc1ccc(OC(F)(F)F)cc1` (centres unmarked) [Example 33, 2-(4-Fluoro-2,6-dimethoxy-phenyl)-3-(4-trifluoromethoxy-benzyl)-thiazolidin-4-one], the values for the 50% inhibitory concentration (IC50) at human orexin-1 receptor and on human orexin-2 receptor were 105 nM and 8 nM, respectively.
With `COc1cccc(OC)c1C1SCC(=O)N1Cc1ccc(Oc2cncnc2)cc1` (centres unmarked) [Example 276, 2-(2,6-Dimethoxy-phenyl)-3-[4-(pyrimidin-5-yloxy)-benzyl]-thiazolidin-4-one], the values for the IC50 on human orexin-1 receptor and at human orexin-2 receptor were 1590 nM and 121 nM, respectively.
Take `COc1ccc2c(c1C1SCC(=O)N1Cc1ccc(OC(F)(F)F)cc1)OCO2` (centres unmarked) [Example 12, 2-(5-Methoxy-benzo[1,3]dioxol-4-yl)-3-(4-trifluoromethoxy-benzyl)-thiazolidin-4-one]: the half-maximal inhibitory concentration (IC50) at human orexin-1 receptor worked out at 310 nM; on human orexin-2 receptor, 11 nM.
The corresponding values for `COc1cccc(OC)c1C1SC(C)C(=O)N1Cc1ccc2ccccc2n1` (centres unmarked) [Example 30, 2-(2,6-Dimethoxy-phenyl)-5-methyl-3-quinolin-2-ylmethyl-thiazolidin-4-one] are 356 nM and 442 nM.
With `CCOc1ccc(CN2C(=O)CSC2c2c(OC)ccc3nc(C)oc23)cc1` (centres unmarked) [Example 20, 3-(4-Ethoxy-benzyl)-2-(6-methoxy-2-methyl-benzooxazol-7-yl)-thiazolidin-4-one], the IC50 worked out at 1560 nM on human orexin-1 receptor and 342 nM on human orexin-2 receptor.
The corresponding values for `CCOc1ccc(CN2C(=O)C(C)(C)SC2c2c(OC)cccc2OC)cc1` (centres unmarked) [Example 175, 2-(2,6-Dimethoxy-phenyl)-3-(4-ethoxy-benzyl)-5,5-dimethyl-thiazolidin-4-one] are 86 nM and 663 nM.
The corresponding values for `COc1ccc2cccnc2c1C1SCC(=O)N1Cc1ccc(OC(F)(F)F)cc1` (centres unmarked) [Example 24, 2-(7-Methoxy-quinolin-8-yl)-3-(4-trifluoromethoxy-benzyl)-thiazolidin-4-one] are 278 nM and 14 nM.
For `CCOc1ccccc1C1SCC(=O)N1Cc1ccc(F)c(F)c1` (centres unmarked) [Example 65, 3-(3,4-Difluoro-benzyl)-2-(2-ethoxy-phenyl)-thiazolidin-4-one] the same measures were 1430 nM and 21 nM.
Take `COc1cccc(OC)c1C1SCC(=O)N1Cc1ccc(Oc2ccccn2)cc1` (centres unmarked) [Example 277, 2-(2,6-Dimethoxy-phenyl)-3-[4-(pyridin-2-yloxy)-benzyl]-thiazolidin-4-one]: the IC50 is 411 nM on human orexin-1 receptor and 8 nM at human orexin-2 receptor.
Turning to `COc1cccc(OC)c1C1N(Cc2ccc(OC(F)(F)F)cc2)C(=O)CS1(=O)=O` (centres unmarked) [Example 288, 2-(2,6-Dimethoxy-phenyl)-1,1-dioxo-3-(4-trifluoromethoxy-benzyl)-thiazolidin-4-one], the IC50 at human orexin-1 receptor amounted to 166 nM; on human orexin-2 receptor, 6 nM.
The corresponding values for “2-[2-(2-Hydroxy-ethoxy)-6-methoxy-phenyl]-3-(4-isopropoxy-benzyl)-thiazolidin-4-on [Example 269]” are 2060 nM and 25 nM.
The corresponding values for `COc1cccc(OC)c1C1SCC(=O)N1Cc1ccc(OC(F)F)cc1` (centres unmarked) [Example 4, 3-(4-Difluoromethoxy-benzyl)-2-(2,6-dimethoxy-phenyl)-thiazolidin-4-one] are 377 nM and 27 nM.
The corresponding values for `COc1cccc(OC)c1C1SCC(=O)N1Cc1ccc(Oc2cccnc2)cc1` (centres unmarked) [Example 278, 2-(2,6-Dimethoxy-phenyl)-3-[4-(pyridin-3-yloxy)-benzyl]-thiazolidin-4-one] are 1030 nM and 10 nM.
Turning to `COc1ccc2nc(C)oc2c1C1SCC(=O)N1Cc1ccc(OC(F)(F)F)cc1` (centres unmarked) [Example 23, 2-(6-Methoxy-2-methyl-benzooxazol-7-yl)-3-(4-trifluoromethoxy-benzyl)-thiazolidin-4-one], the values for the half-maximal inhibitory concentration (IC50) at human orexin-1 receptor and at human orexin-2 receptor were 204 nM and 28 nM, respectively.
Turning to `COc1cccc(OC)c1C1SCC(=O)N1Cc1ccc(OC(F)(F)F)cc1` (centres unmarked) [Example 2, 2-(2,6-Dimethoxy-phenyl)-3-(4-trifluoromethoxy-benzyl)-thiazolidin-4-one], the half-inhibitory concentration (IC50) was 144 nM on human orexin-1 receptor and 15 nM at human orexin-2 receptor.
For `CCOc1ccccc1C1SCCC(=O)N1Cc1ccccc1OC(F)F` (centres unmarked) [Example 40, 3-(2-Difluoromethoxy-benzyl)-2-(2-ethoxy-phenyl)-[1,3]thiazinan-4-one] the same measures were 1310 nM and 68 nM.
In the case of `COc1cc(F)cc(OC)c1C1SC(C)C(=O)N1Cc1ccc(OC(F)(F)F)cc1` (centres unmarked) [Example 36, 2-(4-Fluoro-2,6-dimethoxy-phenyl)-5-methyl-3-(4-trifluoromethoxy-benzyl)-thiazolidin-4-one], the IC50 on human orexin-1 receptor was found to be 171 nM; at human orexin-2 receptor it was 33 nM.
The corresponding values for `CCOc1ccccc1C1SCC(=O)N1Cc1ccc2c(c1)OCCO2` (centres unmarked) [Example 72, 3-(2,3-Dihydro-benzo[1,4]dioxin-6-ylmethyl)-2-(2-ethoxy-phenyl)-thiazolidin-4-one] are 778 nM and 115 nM.
